In publication PMC10819887, “Production of AFB1 High-Specificity Monoclonal Antibody by Three-Stage Screening Combined with the De-Homologation of Antibodies and the Development of High-Throughput icELISA” (Toxins, 2023):
Several values for one entry are separate records, joined by “and”; a condition that tells them apart may be missing. Identical values can stand only once.

Key:
anti-AFB1 mAb (ZFG8) = assay type: binding, mouse
ZFG8 monoclonal antibody = experiment: icELISA working-condition optimization and standard curves (ZFG8, AFB1-BSA); assay type: binding, mouse

aflatoxin B1 [AFB1]
Cross-Reactivity (%) (anti-AFB1 mAb (ZFG8)): 100%
IC50 (anti-AFB1 mAb (ZFG8)): 0.3162 ng/mL
IC20-IC80 (ZFG8 monoclonal antibody): 0.04197 to 0.6299 ng/mL and 0.03329 to 0.9399 ng/mL
IC20-IC80 (linear detection range) (ZFG8 monoclonal antibody): 0.0422 to 1.293 ng/mL
IC50 (ZFG8 monoclonal antibody; pH 7.4): 0.1811 ng/mL
